How the values were obtained:
[1] = system: human spermatozoa; assay: Sander-Cramer assay, spermicidal activity; format: cell-based; settings: for Highest Spermicidal Dilution, median / M.E.C. (minimum effective concentration): solvent dH2O; for Highest Spermicidal Dilution, median: N-9 equimolar 24, kill all spermatozoa within twenty seconds; for M.E.C. (minimum effective concentration): complete spermicidal activity within twenty seconds
Experimental: N-9 and its iodinated derivatives were assessed in vitro for their ability to kill spermatozoa and HIV virions. The Sander-Cramer assay was performed in order to evaluate the spermicidal activity of the surfactants and their coprecipitates with PVP. This assay determines the minimum lethal dose, reported as a concentration, of spermicide needed to kill all spermatozoa within twenty seconds. The following oligomers were incorporated into coprecipitates with PVP for the in vitro assessment: IN-9 (n=1-17), IN-9 (n=8) and IN-9 (n=13). The neat liquids of N-9 and IN-9 were also assessed for their spermicidal activity. The quantity of active compound in each coprecipitate was determined by a normal phase HPLC analysis and presented as a weight by weight (w/w) percentage. The amount of active compound in each coprecipitate was adjusted by using the w/w percentages so that the assays were conducted using equimolar amounts of active compounds.

[2] = system: free HIV-1-RF; assay: Cell-Free HIV Inactivation assay; format: cell-based; settings: for Infec. Red. (log), Cell-Free HIV Inactivation: two minute incubation; for virucidal activity against cell-free HIV: sufficient if viral titer reduction of at least two log10 units
Experimental: (§1) The compounds used in the Sander-Cramer assays (neat liquids and coprecipitates) were evaluated for their anti-HIV activity using the Cell-Free and Cell-Associated Inactivation Assays (see Table #3). Both assays employ solutions of active compound at varying concentrations in order to detect the optimal concentration to reduce the infectivity of a predetermined HIV viral load in the form of free HIV-1-RF or RF infected H9 cells. A solution of active compound is determined to have sufficient anti-viral activity if, when tested, a viral titer reduction of at least two log10 units occurs. N-9 and IN-9, in their neat liquid forms, were both found to be virucidal against cell-free and cell-associate HIV. […] The coprecipitates of N-9 (n=1-17) and IN-9 (n=1-17) were also virucidal in both assays.

[3] = system: RF infected H9 cells; assay: Cell-Associated HIV Inactivation assay; format: cell-based, HIV-1; settings: for Infec. Red. (log), Cell-Associated HIV Inactivation: two minute incubation; for virucidal activity against cell-associated HIV: sufficient if viral titer reduction of at least two log10 units
Experimental: as §1

[4] = system: HIV-1; settings: background; cited from earlier work
[5] = background; cited from earlier work
[6] = Solubility and pH of test solutions in dH2O (Table 2); settings: in dH2O at initial concentration of the Sander-Cramer assay
[7] = Partition coefficient in n-octanol/water (log P) with radiolabeled species; format: physicochemical
Description: Radiolabeled species ([^14C]nonoxynol-9, [^125I]iodinated nonoxynol-9) were used to obtain precise measurements of the log P values. Iodinated nonoxynol-9 was conceptualized to be more lipophilic based upon the work by chemists such as Hammett and Hansch. Hammett determined that the halogens (F, Cl, Br, I), when attached covalently to an aromatic ring, withdrew a portion of the electron density out of the ring. The decrease in electron density causes the ring to be less susceptible to induced polarization by solvent molecules, therefore increasing its lipophilic character. The hydrophobic parameter π, developed by Hansch, reflects a substituent's ability to impart lipophilic character on a molecule (π=log Psubstituted molecule−log […]). Hansch found experimentally that the halogens created a positive π value in most molecular systems which correlated with an increase in the lipophilicity of the compound. […] Additionally, the lengthening of the ethylene oxide chain allows for reduced irritation of the vaginal epithelial lining by reducing the formation of micelles. […] Iodide was chosen as the halogen to substitute nonoxynol-9 due to its relatively large σ and π values it produces when employed as a substituent. With an increase in the hydrophobic character, iodinated nonoxynol-9 should insert into sperm membranes more readily leading to an increase in spermicidal activity. In addition, the molecular weight and size of iodinated nonoxynol-9 is greater than that of nonoxynol-9 which leads to the possibility of the molecule being less bioavailable from vaginally placed dosage forms.

[8] = as determined by 125IN-9, mean ± spread
[9] = as determined by [14C]N-9, mean ± spread

CCCCCCCCCc1ccc(OCCOCCOCCOCCOCCOCCOCCOCCOCCO)cc1 [N-9 (1-17), nonoxynol-9]
Highest Spermicidal Dilution, median [1]: 128.0 | M.E.C. (minimum effective concentration) [1]: 188.0 µg/mL | Infec. Red. (log), Cell-Free HIV Inactivation ([2]; Conc. 0.0032 %): 0.3 log | Infec. Red. (log), Cell-Free HIV Inactivation ([2]; Conc. 0.01 %): 2.3 log | Infec. Red. (log), Cell-Free HIV Inactivation ([2]; Conc. 0.032 %): >4.5 log | Infec. Red. (log), Cell-Free HIV Inactivation ([2]; Conc. 0.1 %): >3.5 log | virucidal activity against cell-free HIV [2]: virucidal | Infec. Red. (log), Cell-Associated HIV Inactivation ([3]; Conc. 0.0032 %): 0.8 log | Infec. Red. (log), Cell-Associated HIV Inactivation ([3]; Conc. 0.01 %): 0.8 log | Infec. Red. (log), Cell-Associated HIV Inactivation ([3]; Conc. 0.032 %): 2.5 log | Infec. Red. (log), Cell-Associated HIV Inactivation ([3]; Conc. 0.1 %): 3.2 log | virucidal activity against cell-associated HIV [3]: virucidal | inactivation of HIV-1 in vitro [4]: inactivates HIV-1 completely | vaginal irritation [5]: increase with increased dose | Solubility [6]: OK clear soln.

Mono-iodinated Nonoxynol-9 [IN-9 (n=4)]
log P [7, 8]: 2.4 ± 0.2

Mono-iodinated Nonoxynol-9 [IN-9 (n=8)]
log P [7, 8]: 2.2 ± 0.1

Mono-iodinated Nonoxynol-9 [IN-9 (n=11)]
log P [7, 8]: 2.2 ± 0.1

Mono-iodinated Nonoxynol-9 [IN-9 (n=13)]
log P [7, 8]: 1.8 ± 0.1

Mono-iodinated nonoxynol-9 [IN-9 (1-17)]
MEC times less than that of neat N-9 (n=1-17) ([1]; neat liquids): over 30 times | Highest Spermicidal Dilution, median [1]: 4096.0 | M.E.C. (minimum effective concentration) [1]: 6.0 µg/mL | Infec. Red. (log), Cell-Free HIV Inactivation ([2]; Conc. 0.0032 %): 0.3 log | Infec. Red. (log), Cell-Free HIV Inactivation ([2]; Conc. 0.01 %): 2.3 log | Infec. Red. (log), Cell-Free HIV Inactivation ([2]; Conc. 0.032 %): 3.3 log | Infec. Red. (log), Cell-Free HIV Inactivation ([2]; Conc. 0.1 %): >4.5 log | effectiveness in killing HIV compared with N-9 (n=1-17) ([2]; statement on Table 3, both assays): at least as effective in killing HIV as N-9 (n=1-17) | virucidal activity against cell-free HIV [2]: virucidal | effectiveness against cell-associated HIV compared with N-9 [3]: slightly more effective than N-9 | Infec. Red. (log), Cell-Associated HIV Inactivation ([3]; Conc. 0.0032 %): 1.0 log | Infec. Red. (log), Cell-Associated HIV Inactivation ([3]; Conc. 0.01 %): 1.8 log | Infec. Red. (log), Cell-Associated HIV Inactivation ([3]; Conc. 0.032 %): 2.3 log | Infec. Red. (log), Cell-Associated HIV Inactivation ([3]; Conc. 0.1 %): >5.0 log | virucidal activity against cell-associated HIV [3]: virucidal | Solubility [6]: OK hazy soln.

Nonoxynol-9 [N-9 (n=4), reference compound]
log P [7, 9]: 1.6 ± 0.05

Nonoxynol-9 [N-9 (n=8), reference compound]
log P [7, 9]: 1.4 ± 0.01

Nonoxynol-9 [N-9 (n=11), reference compound]
log P [7, 9]: 1.3 ± 0.07
